According to patent US8440641B2, “Phthalocyanine salt formulations” (Case Western Reserve University, priority 2009, dated 2013):
Where “and” joins values, the source holds several entries; their conditions need not be identical. Equal values may be shown once.

What was measured:
Format in all cases: physicochemical
[1] = Chemical stability (air, chromatography)
[2] = Qualitative solubility in representative organic solvents; settings: for solubility in CH2Cl2: CH2Cl2, qualitative; for solubility in dimethylformamide / solubility in ethanol / solubility in hexanes / solubility in toluene: qualitative
[3] = Photofading of phthalocyanines on irradiation with tungsten lamp light; settings: toluene ~0.01 mM, 300 W tungsten lamp, 30 cm, room temperature
Method: Linolenate Ester of SiPc(OH)2, SiPc(OC(O)(CH2)6(CH2CH═CH)3 CH2CH3]2. A solution of the linolenate ester of SiPc(OH)2 in toluene (˜0.01 mM) in a capped quartz cuvette was irradiated at room temperature with light from a tungsten lamp (300 W) in a projector (Kodak […] III E, Kodak, Japan) with a lamp-to-cuvette separation of 30 cm. The UV-vis absorption of the solution at 684 nm was taken periodically and the percent ester remaining was calculated.
The compounds below Table 7 show phthalocyanines with (a) polyunsaturated ester ligands and (b) with polyunsaturated anions

[4] = Quantitative solubility (concentration) in H2O and aqueous dispersants
Source text: Disperstants are agents added to an aqueous solution to prevent clumping, and include a number of surfactant and surfactant-like molecules. […]

[5] = Salt concentration in polar and nonpolar solvents (Table 2); settings: for solubility in hexanes and mineral oil: mineral oil (Nujol)

solubility in CH2Cl2 [2] | solubility in dimethylformamide [2] | solubility in ethanol [2] | solubility in hexanes [2] | solubility in toluene [2] | Compound | also measured
soluble | soluble | soluble | insoluble | moderately soluble | [ClSiPcOSi(CH3)2(CH2)3NH(CH3)2]^+Cl^− [Compound 28] | time of hydrolysis by air to Pc 4 ([1]; air): ≤ 30 min
soluble | soluble | soluble | insoluble | moderately soluble | CO[Si]1(O[Si](C)(C)CCCN(C)C)n2c3c4ccccc4c2N=C2N=C(N=c4c5ccccc5c(n41)=NC1=NC(=N3)c3ccccc31)c1ccccc12 (stereo not drawn) [Compound 4, CH3OSiPcOSi(CH3)2(CH2)3N(CH3)2] | stability in air ([1]; air): stable
soluble | soluble | soluble | insoluble | moderately soluble | [HOSiPcOSi(CH3)2(CH2)3NH(CH3)2]^+[H(OCH2CH2)˜76O(O)C(CH2)2C(O)O]^− [Compound 22] | 
 |  |  |  |  | SiPc(OC(O)(CH2)6(CH2CH═CH)2(CH2)4CH3]2 [linoleic ester] | % left ([3]; 4 hrs irradiation): 95%; % left ([3]; 12 hrs irradiation): 95%; % left ([3]; 20 hrs irradiation): 94%
soluble | soluble | soluble | insoluble | moderately soluble | [HOSiPcOSi(CH3)2(CH2)3NH(CH3)2]^+[(HOC(O)(CH2)10Si(CH3)2)(Si(CH3)2O)˜120(Si(CH3)2(CH2)10C(O)O]^− [Compound 16] | stability on chromatography ([1]; Biobeads S-X3, CH2Cl2): decomposed to Pc 4 and the carboxysiloxane
soluble | soluble | soluble | insoluble | moderately soluble | H(OCH2CH2)˜76OOC(CH2)2COOH [Compound 21] | 
 |  |  |  |  | {SiPc[OSi(CH3)2(CH2)3NH(CH3)2]2}^2+[CH3CH2(CH═CHCH2)3(CH2)6COO^−]2 [linolenic salt] | % left ([3]; 12 hrs irradiation): 79%; % left ([3]; 20 hrs irradiation): 73%
 |  |  |  |  | CCC=CCC=CCC=CCC=CCC=CCC=CCCC(=O)O.CCC=CCC=CCC=CCC=CCC=CCC=CCCC(=O)O.CN(C)CCC[Si](C)(C)O[Si]1(O[Si](C)(C)CCCN(C)C)n2c3c4ccccc4c2N=C2N=C(N=c4c5ccccc5c(n41)=NC1=NC(=N3)c3ccccc31)c1ccccc12 [DHA salt, {SiPc[OSi(CH3)2(CH2)3NH(CH3)2]2}^2+[CH3CH2(CH═CHCH2)6CH2COO^−]2] | % left ([3]; 4 hrs irradiation): 72%; % left ([3]; 8 hrs irradiation): 62%
soluble | soluble | soluble | insoluble | moderately soluble | H(OCH2CH2)˜9OC(O)(CH2)2C(O)OH [Compound 19] | 
soluble | soluble | soluble | insoluble | moderately soluble | [HOSiPcOSi(CH3)2(CH2)3NH(CH2)2]^+[C27H29N2O7S2]^− [Compound 14] | 
 |  |  |  |  | SiPc[OC(O)(CH2)17]2 [stearic ester] | % left ([3]; 20 hrs irradiation): 100%
soluble | soluble | soluble | insoluble | moderately soluble | CH3(OCH2CH2)˜45OC(O)(CH2)2C(O)OH [Compound 23] | 
soluble | soluble | soluble | insoluble | moderately soluble | 4-C9H19C6H4-1-(OCH2CH2)˜20O(CH2)3SO3H [Compound 17] | 
soluble | soluble | soluble | insoluble | moderately soluble | CN(C)CCC[Si](C)(C)O[Si]1(O)n2c3c4ccccc4c2N=C2N=C(N=c4c5ccccc5c(n41)=NC1=NC(=N3)c3ccccc31)c1ccccc12.O=C(O)CCC(=O)OCCOCCOCCOCCOCCOCCOCCOCCOCCO (stereo not drawn) [Compound 20, [HOSiPcOSi(CH3)2(CH2)3NH(CH3)2]^+[H(OCH2CH2)9OC(O)(CH2)2C(O)O]^−] | 
soluble | soluble | soluble | insoluble | moderately soluble | [HOSiPcOSi(CH3)2(CH2)3NH(CH3)2]^+[4-C9H19C6H4-1-(OCH2CH2)˜20O(CH2)3SO3]^− [Compound 18] | salt conc in dilute aqueous Tween 80 ([4]; Tween 80 7.2 mg/mL ([…])): 874 µM; salt conc ([4]; aqueous Dow Corning 193 7.2 mg/mL, listed as Pc 245): 50 μg/mL and 70 μM; salt conc ([4]; aqueous PEG methyl ether 350 7.2 mg/mL (21 mM), listed as Pc 245): 9.3 μg/mL and 13 μM; salt conc ([4]; aqueous PEG methyl ether 750 7.2 mg/mL (9.6 mM), listed as Pc 245): 0.022 μg/mL and 0.031 μM; salt conc ([4]; aqueous PEG methyl ether 2000 7.2 mg/mL (3.6 mM), listed as Pc 245): 1.3 μg/mL and 1.8 μM; salt conc ([4]; aqueous PEG methyl ether 5000 7.2 mg/mL (1.4 mM), listed as Pc 245): 3.4 μg/mL and 4.8 μM; salt conc ([4]; aqueous potassium poly(ethylene glycol)-4-nonylphenyl-3-sulfopropyl ether 7.2 mg/mL (5.0 mM)): 1418 µM; salt conc ([4]; aqueous potassium poly(ethylene glycol)-4-nonylphenyl-3-sulfopropyl ether 7.2 mg/mL (5.0 mM), listed as Pc 245): ~1018 μg/mL and ~1418 μM; salt conc ([4]; aqueous povidone 7.2 mg/mL (0.18 mM), listed as Pc 245): 14 μg/mL and 19 μM
soluble | soluble | soluble | insoluble | moderately soluble | CN(C)CCC[Si](C)(C)O[Si]1(O)n2c3c4ccccc4c2N=C2N=C(N=c4c5ccccc5c(n41)=NC1=NC(=N3)c3ccccc31)c1ccccc12.CP(C)(=O)O (stereo not drawn) [Compound 13, [HOSiPcOSi(CH3)2(CH2)3NH(CH2)2]^+[(CH3)2P(O)O]^−] | 
 |  |  |  |  | CN(C)CCC[Si](C)(C)O[Si]1(O)n2c3c4ccccc4c2N=C2N=C(N=c4c5ccccc5c(n41)=NC1=NC(=N3)c3ccccc31)c1ccccc12 (stereo not drawn) [Pc 4, HOSiPcOSi(CH3)2(CH2)3N(CH3)2, reference compound] | Pc 4 conc ([4]; H2O, no dispersant): 0.0 μg/mL and 0.0 μM; Pc 4 conc ([4]; aqueous 1,6-hexanediol 7.2 mg/mL (61 mM)): 7.2 μg/mL and 10 μM; Pc 4 conc ([4]; aqueous Dow Corning 193 7.2 mg/mL): 0.29 μg/mL and 0.40 μM; Pc 4 conc ([4]; aqueous potassium poly(ethylene glycol)-4-nonylphenyl-3-sulfopropyl ether 7.2 mg/mL (5.7 mM)): 4.3 μg/mL and 6.0 μM; Pc 4 conc ([4]; aqueous povidone 7.2 mg/mL (0.18 mM)): 0.09 μg/mL and 0.12 μM
soluble | soluble | soluble | slightly soluble | moderately soluble | [HOSiPcOSi(CH3)2(CH2)3NH(CH2)2]^+[C33H53O5]^− [Compound 11] | salt concentration, […] aqueous Tween 80 [5]: 0.004 mM; solubility in aqueous solution ([5]; in words): only slight solubility; salt concentration, hexanes [5]: 0.065 mM; solubility in hexanes and mineral oil ([5]; in words): significant solubility; salt concentration, mineral oil [5]: 0.029 mM; solubility in petrolatum ([5]; petrolatum (Vaseline), in words): significant solubility
soluble | soluble | soluble | insoluble | moderately soluble | CN(C)CCC[Si](C)(C)O[Si]1(O)n2c3c4ccccc4c2N=C2N=C(N=c4c5ccccc5c(n41)=NC1=NC(=N3)c3ccccc31)c1ccccc12.COC(=O)c1ccccc1C(=O)O (stereo not drawn) [Compound 10, [HOSiPcOSi(CH3)2(CH2)3NH(CH2)2]^+[2-(CH3OC(O))C6H4C(O)O]^−] | 
 |  |  |  |  | CN(C)CCC[Si](C)(C)O[Si]1(O)n2c3c4ccccc4c2N=C2N=C(N=c4c5ccccc5c(n41)=NC1=NC(=N3)c3ccccc31)c1ccccc12.CS(=O)(=O)O (stereo not drawn) [Compound 26, [HOSiPcOSi(CH3)2(CH2)3NH(CH3)2]^+[CH3SO3]^−] | salt concentration, […] aqueous Tween 80 [5]: 0.262 mM; solubility in aqueous solution ([5]; in words): show solubility; salt concentration, hexanes [5]: 0.002 mM; solubility in hexanes and mineral oil ([5]; in words): little; salt concentration, mineral oil [5]: 0.002 mM

Compound | solubility in CH2Cl2 [2] | solubility in dimethylformamide [2] | solubility in ethanol [2] | solubility in hexanes [2] | solubility in toluene [2] | also measured
CCC(=O)O[Si-2]123(O[Si](C)(C)CCCN(C)C)n4c5c6ccccc6c4N=C4c6ccccc6C(=[N+]41)N=c1c4ccccc4c(n12)=NC1=[N+]3C(=N5)c2ccccc21 [Compound 3, CH3CH2C(O)OSiPcOSi(CH3)2(CH2)3N(CH3)2] | soluble | soluble | soluble | insoluble | moderately soluble | stability in air ([1]; air): stable
[HOSiPcOSi(CH3)2(CH2)3NH(CH3)2]^+[CH3(OCH2CH2)˜45OC(O)(CH2)2C(O)O]^− [Compound 24] | soluble | soluble | soluble | insoluble | moderately soluble | 
